We go through 15 molecules from patent publication US8574563B2 (Bristol-Myers Squibb Company, priority 2006, dated 2013).

Structures are written as SMILES.

Broadly, the EC50 is the concentration that produces a half-maximal response.

This assay concerns HCV 1b-377-neo replicon cells. Nature of the assay: HCV replicon assay, HCV 1b-377-neo replicon cells (1b FRET). Format: cell-based, Hepatitis C virus genotype 1b. Conditions: Hepatitis C virus, HCV 1b-377-neo replicon cells; HCV 1b genotype; read-out: EC50 range against HCV 1b (Table 2, Range). The method, boiled down:
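Compounds tested in HCV genotype 1b-377-neo replicon cells with a FRET read-out. Cells resistant to a reference NS5A inhibitor through a Y2065H NS5A mutation were run alongside wild-type cells.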
Background: Replicon systems follow genome replication, usually without infectious particles.
On to `COC(=O)N[C@@H](C)C(=O)N1C[C@@H](F)C[C@H]1c1ncc(-c2ccc(-c3ccc(-c4cnc([C@@H]5C[C@H](F)CN5C(=O)[C@H](C)NC(=O)OC)[nH]4)cc3)cc2)[nH]1` [JG-13, methyl ((1S)-2-((2S,4S)-4-fluoro-2-(5-(4′-(2-((2S,4S)-4-fluoro-1-(N-(methoxycarbonyl)-L-alanyl)-2-pyrrolidinyl)-1H-imidazol-5-yl)-4-biphenylyl)-1H-imidazol-2-yl)-1-pyrrolidinyl)-1-methyl-2-oxoethyl)carbamate], for which the EC50 fell in the range of 1 to 99 nM. With `CCN(CC)[C@@H](C(=O)N1C[C@@H](F)C[C@H]1c1ncc(-c2ccc(-c3ccc(-c4cnc([C@@H]5C[C@H](F)CN5C(=O)[C@H](C)NC(=O)OC)[nH]4)cc3)cc2)[nH]1)c1ccccc1` [JG-14, methyl ((1S)-2-((2S,4S)-2-(5-(4′-(2-((2S,4S)-1-((2R)-2-(diethylamino)-2-phenylacetyl)-4-fluoro-2-pyrrolidinyl)-1H-imidazol-5-yl)-4-biphenylyl)-1H-imidazol-2-yl)-4-fluoro-1-pyrrolidinyl)-1-methyl-2-oxoethyl)carbamate], the EC50 lay within 0.001 to 0.999 nM.

Take `CCN(CC)[C@@H](C(=O)N1C[C@@H](F)C[C@H]1c1ncc(-c2ccc(-c3ccc(-c4cnc([C@@H]5C[C@H](F)CN5C(=O)[C@@H](NC(=O)OC)C(C)C)[nH]4)cc3)cc2)[nH]1)c1ccccc1` [JG-15, methyl ((1S)-1-(((2S,4S)-2-(5-(4′-(2-((2S,4S)-1-((2R)-2-(diethylamino)-2-phenylacetyl)-4-fluoro-2-pyrrolidinyl)-1H-imidazol-5-yl)-4-biphenylyl)-1H-imidazol-2-yl)-4-fluoro-1-pyrrolidinyl)carbonyl)-2-methylpropyl)carbamate]: the concentration for a half-maximal effect (EC50) fell in the range of 0.001 to 0.999 nM. Turning to `COC(=O)N[C@H](C(=O)N1C[C@H](F)C[C@H]1c1ncc(-c2ccc(-c3ccc(-c4cnc([C@@H]5C[C@@H](F)CN5C(=O)[C@@H](NC(=O)OC)C(C)C)[nH]4)cc3)cc2)[nH]1)C(C)C` [JG-16, methyl ((1S)-1-(((2S,4R)-4-fluoro-2-(5-(4′-(2-((2S,4R)-4-fluoro-1-((2S)-2-((methoxycarbonyl)amino)-3-methylbutanoyl)-2-pyrrolidinyl)-1H-imidazol-5-yl)-4-biphenylyl)-1H-imidazol-2-yl)-1-pyrrolidinyl)carbonyl)-2-methylpropyl)carbamate], the 50% effective concentration (EC50) was in the range of 0.001 to 0.999 nM. As to `CCN(CC)[C@@H](C(=O)N1C[C@H](F)C[C@H]1c1ncc(-c2ccc(-c3ccc(-c4cnc([C@@H]5C[C@@H](F)CN5C(=O)[C@@H](c5ccccc5)N(CC)CC)[nH]4)cc3)cc2)[nH]1)c1ccccc1` [JG-17, (1R,1′R)-2,2′-(4,4′-biphenyldiylbis(1H-imidazole-5,2-diyl((2S,4R)-4-fluoro-2,1-pyrrolidinediyl)))bis(N,N-diethyl-2-oxo-1-phenylethanamine)], the EC50 was 0.001 to 0.999 nM. Regarding `O=C([C@@H](O)C1CCCCC1)N1CCC[C@H]1c1ncc(-c2ccc(-c3ccc(-c4cnc([C@@H]5CCCN5C(=O)[C@@H](O)C5CCCCC5)[nH]4)cc3)cc2)[nH]1` [LS2, (1S,1′S)-2,2′-(4,4′-biphenyldiylbis(1H-imidazole-5,2-diyl(2S)-2,1-pyrrolidinediyl))bis(1-cyclohexyl-2-oxoethanol)], the EC50 fell in the range of 1 to 99 nM. For `CC(C)C[C@H](O)C(=O)N1CCC[C@H]1c1ncc(-c2ccc(-c3ccc(-c4cnc([C@@H]5CCCN5C(=O)[C@@H](O)CC(C)C)[nH]4)cc3)cc2)[nH]1` [LS3, (2S,2′S)-1,1′-(4,4′-biphenyldiylbis(1H-imidazole-5,2-diyl(2S)-2,1-pyrrolidinediyl))bis(4-methyl-1-oxo-2-pentanol)], the EC50 lay within 1 to 99 nM. Turning to `CC(C)[C@H](O)C(=O)N1CCC[C@H]1c1ncc(-c2ccc(-c3ccc(-c4cnc([C@@H]5CCCN5C(=O)[C@@H](O)C(C)C)[nH]4)cc3)cc2)[nH]1` [LS4, (2S,2′S)-1,1′-(4,4′-biphenyldiylbis(1H-imidazole-5,2-diyl(2S)-2,1-pyrrolidinediyl))bis(3-methyl-1-oxo-2-butanol)], the EC50 was 1 to 99 nM. For `CN[C@@H](C)C(=O)N1CCC[C@H]1c1ncc(-c2ccc(-c3ccc(-c4cnc([C@@H]5CCCN5C(=O)[C@H](C)NC)[nH]4)cc3)cc2)[nH]1` [LS6, (2S,2′S)-1,1′-(4,4′-biphenyldiylbis(1H-imidazole-5,2-diyl(2S)-2,1-pyrrolidinediyl))bis(N-methyl-1-oxo-2-propanamine)], the EC50 was 100 to 999 nM.

On to `O=C1N[C@H](C(=O)N2CCC[C@H]2c2ncc(-c3ccc(-c4ccc(-c5cnc([C@@H]6CCCN6C(=O)[C@@H]6CCOC(=O)N6)[nH]5)cc4)cc3)[nH]2)CCO1` [LS11, (4S,4′S)-4,4′-(4,4′-biphenyldiylbis(1H-imidazole-5,2-diyl(2S)-2,1-pyrrolidinediylcarbonyl))bis(1,3-oxazinan-2-one)], for which the EC50 lay in the range of 1000 to 10000 nM. Take `CCN(CC)[C@@H](C(=O)N1CCC[C@H]1c1ncc(-c2ccc(-c3ccc(-c4cnc([C@@H]5CCCN5C(=O)[C@@H](NC(=O)OC)C5CCOCC5)[nH]4)cc3)cc2)[nH]1)c1ccccc1` [LS14, methyl ((1S)-2-((2S)-2-(5-(4′-(2-((2S)-1-((2R)-2-(diethylamino)-2-phenylacetyl)-2-pyrrolidinyl)-1H-imidazol-5-yl)-4-biphenylyl)-1H-imidazol-2-yl)-1-pyrrolidinyl)-2-oxo-1-(tetrahydro-2H-pyran-4-yl)ethyl)carbamate]: the EC50 was 0.001 to 0.999 nM. Turning to `C=CCCOC(=O)N[C@H](C(=O)N1CCC[C@H]1c1ncc(-c2ccc(-c3ccc(-c4cnc([C@@H]5CCCN5C(=O)[C@@H](NC(=O)OCCC=C)C(C)C)[nH]4)cc3)cc2)[nH]1)C(C)C` [LS16, 3-buten-1-yl ((1S)-1-(((2S)-2-(5-(4′-(2-((2S)-1-((2S)-2-(((3-buten-1-yloxy)carbonyl)amino)-3-methylbutanoyl)-2-pyrrolidinyl)-1H-imidazol-5-yl)-4-biphenylyl)-1H-imidazol-2-yl)-1-pyrrolidinyl)carbonyl)-2-methylpropyl)carbamate], the EC50 is 1 to 99 nM. With `CNCC(=O)N1CCC[C@H]1c1ncc(-c2ccc(-c3ccc(-c4cnc([C@@H]5CCCN5C(=O)[C@@H](NC(=O)OC)C(C)C)[nH]4)cc3)cc2)[nH]1` [LS20, methyl ((1S)-2-methyl-1-(((2S)-2-(5-(4′-(2-((2S)-1-(N-methylglycyl)-2-pyrrolidinyl)-1H-imidazol-5-yl)-4-biphenylyl)-1H-imidazol-2-yl)-1-pyrrolidinyl)carbonyl)propyl)carbamate], the EC50 lay in the range of 0.001 to 0.999 nM. Next, `CCNCC(=O)N1CCC[C@H]1c1ncc(-c2ccc(-c3ccc(-c4cnc([C@@H]5CCCN5C(=O)[C@@H](NC(=O)OC)C(C)C)[nH]4)cc3)cc2)[nH]1` [LS21, methyl ((1S)-1-(((2S)-2-(5-(4′-(2-((2S)-1-(N-ethylglycyl)-2-pyrrolidinyl)-1H-imidazol-5-yl)-4-biphenylyl)-1H-imidazol-2-yl)-1-pyrrolidinyl)carbonyl)-2-methylpropyl)carbamate]: 0.001 to 0.999 nM; `COC(=O)N[C@H](C(=O)N1CCC[C@H]1c1ncc(-c2ccc(-c3ccc(-c4cnc([C@@H]5CCCN5C(=O)CNCc5ccccc5)[nH]4)cc3)cc2)[nH]1)C(C)C` [LS22, methyl ((1S)-1-(((2S)-2-(5-(4′-(2-((2S)-1-(N-benzylglycyl)-2-pyrrolidinyl)-1H-imidazol-5-yl)-4-biphenylyl)-1H-imidazol-2-yl)-1-pyrrolidinyl)carbonyl)-2-methylpropyl)carbamate]: 0.001 to 0.999 nM.
